Source: ChEMBL document CHEMBL2029240 (ACS Med Chem Lett, 2011)

Columns and labels:
hERG (KCNH2) = hERG (KCNH2) (Homo sapiens, UniProt Q12809); assay: Inhibition of human ERG at 10 uM by patch clamp assay
[1] = target: Voltage-gated inwardly rectifying potassium channel KCNH2 (Homo sapiens, UniProt Q12809); assay: Displacement of [3H]dofetilide from human ERG
[2] = target: T1, C-C chemokine receptor type 2 (Homo sapiens, UniProt P41597)
Description: Displacement of [125I]MCP1 from human CCR2 in PBMC after 30 mins by gamma counting

[3] = target: T1, C-C chemokine receptor type 2; assay: Antagonist activity at CCR2 receptor in human whole blood assessed as inhibition of alexa-tagged MCP-induced effect 30 mins by flow cytometry; type: functional, tissue-based

Chain of Voltage-gated inwardly rectifying potassium channel KCNH2 (Q12809 whole entry): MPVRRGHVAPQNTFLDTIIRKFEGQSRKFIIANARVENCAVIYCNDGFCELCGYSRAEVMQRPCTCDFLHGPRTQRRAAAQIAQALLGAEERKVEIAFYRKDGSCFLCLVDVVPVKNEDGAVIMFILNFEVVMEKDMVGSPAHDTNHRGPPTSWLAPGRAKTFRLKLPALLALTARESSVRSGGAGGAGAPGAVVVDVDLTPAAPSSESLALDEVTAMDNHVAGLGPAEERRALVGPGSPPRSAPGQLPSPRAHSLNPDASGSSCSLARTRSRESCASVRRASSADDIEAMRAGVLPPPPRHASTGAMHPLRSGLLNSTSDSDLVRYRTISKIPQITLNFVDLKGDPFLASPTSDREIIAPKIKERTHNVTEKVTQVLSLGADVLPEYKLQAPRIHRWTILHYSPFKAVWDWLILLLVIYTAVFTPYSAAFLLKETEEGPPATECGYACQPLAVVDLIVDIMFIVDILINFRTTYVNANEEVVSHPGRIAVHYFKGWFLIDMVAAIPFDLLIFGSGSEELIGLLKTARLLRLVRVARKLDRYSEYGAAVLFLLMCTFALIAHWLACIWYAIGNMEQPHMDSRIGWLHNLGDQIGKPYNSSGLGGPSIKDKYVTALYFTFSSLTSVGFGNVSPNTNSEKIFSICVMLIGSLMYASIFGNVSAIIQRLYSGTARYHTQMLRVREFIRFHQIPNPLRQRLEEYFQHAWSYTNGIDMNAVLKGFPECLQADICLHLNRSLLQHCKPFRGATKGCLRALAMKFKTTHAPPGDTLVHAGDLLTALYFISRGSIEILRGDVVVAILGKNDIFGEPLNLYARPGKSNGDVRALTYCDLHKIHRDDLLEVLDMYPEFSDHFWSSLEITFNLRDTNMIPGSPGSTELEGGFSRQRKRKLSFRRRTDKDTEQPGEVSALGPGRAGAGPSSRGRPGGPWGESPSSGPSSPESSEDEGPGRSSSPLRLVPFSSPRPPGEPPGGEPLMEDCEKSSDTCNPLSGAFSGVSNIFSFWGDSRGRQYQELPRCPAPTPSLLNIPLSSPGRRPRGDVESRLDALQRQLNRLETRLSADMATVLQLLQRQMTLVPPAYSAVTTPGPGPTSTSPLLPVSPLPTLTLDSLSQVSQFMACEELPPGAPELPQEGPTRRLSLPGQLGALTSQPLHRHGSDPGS
T1 sequence (P41597 whole entry): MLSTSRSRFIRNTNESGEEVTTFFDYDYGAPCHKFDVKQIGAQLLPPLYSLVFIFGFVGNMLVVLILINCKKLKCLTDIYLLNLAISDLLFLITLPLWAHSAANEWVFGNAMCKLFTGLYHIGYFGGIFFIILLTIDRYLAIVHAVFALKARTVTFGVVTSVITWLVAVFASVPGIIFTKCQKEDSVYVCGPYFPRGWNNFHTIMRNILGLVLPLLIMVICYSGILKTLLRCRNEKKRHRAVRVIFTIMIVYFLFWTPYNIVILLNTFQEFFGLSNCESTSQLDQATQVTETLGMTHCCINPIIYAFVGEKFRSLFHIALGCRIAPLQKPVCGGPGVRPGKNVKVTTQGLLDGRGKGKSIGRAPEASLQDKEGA
Chain of hERG (KCNH2) (Q12809 whole entry): as the sequence (Q12809 whole entry) above

IC50 [2] [nM]	IC50 [3] [nM]	Compound	inhibition at 10 µM (hERG (KCNH2)) [%]	IC50 [1] [nM]
		O=C(NCC(=O)N1CC[C@H](N[C@H]2CC[C@@](O)(c3ccc(-c4cnccn4)cn3)CC2)C1)c1cccc(C(F)(F)F)c1	70	> 30000
		O=C(NCC(=O)N1CC[C@H](N[C@H]2CC[C@@](O)(c3ccc(-c4nccs4)cn3)CC2)C1)c1cccc(C(F)(F)F)c1	85	> 30000
3.6	37	O=C(C1CCN(c2cccc(C(F)(F)F)c2)CC1)N1CC[C@H](N[C@H]2CC[C@@](O)(c3ccc(-c4ncccn4)cn3)CC2)C1		9000
4.5	88	O=C(C1CCN(c2cccc(C(F)(F)F)n2)CC1)N1CC[C@H](N[C@H]2CC[C@@](O)(c3ccc(-c4ncccn4)cn3)CC2)C1		
3.3	12	O=C(C1CCN(c2cc(C(F)(F)F)ccn2)CC1)N1CC[C@H](N[C@H]2CC[C@@](O)(c3ccc(-c4ncccn4)cn3)CC2)C1		28000
